# Assay results from patent publication US7763615B2, “Ecteinascidin analogs for use as antitumour agents” (priority 2001, dated 2010).
# Read-outs that look alike come from different tables or passages of the source.
# Columns and labels:
# IGROV-ET = test: cells; type: cell-based; conditions: IGROV-ET; for CC50: read-out: LC50
# Summary of the method: (§1)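 For 48 hours, cells seeded at 5×10^3 per well were kept in contact with samples spanning 10 to 10^−8 μg/ml after an 18-hour attachment period. Viable biomass was then estimated colorimetrically with sulphorhodamine B at 490 nm.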
# SK-BR3 = test: cells; type: cell-based; conditions: for CC50: read-out: LC50
# Summary of the method: as §1
# HT29 = test: cells; type: cell-based; conditions: for CC50: read-out: LC50
# Summary of the method: as §1
# PANC-1 = test: cells; type: cell-based; conditions: for CC50: read-out: LC50
# Summary of the method: as §1
# K562 = test: cells; type: cell-based; conditions: for CC50: read-out: LC50
# Summary of the method: as §1
# LOVO-DOX = test: cells; type: cell-based; conditions: LOVO-DOX; for CC50: read-out: LC50
# Summary of the method: as §1
# LNCAP = test: cells; type: cell-based; conditions: LNCAP; for CC50: read-out: LC50
# Summary of the method: as §1
# A549 = test: cells; type: cell-based; conditions: for GI50: read-out: GI50; for CC50: read-out: LC50
# Summary of the method: as §1
# IGROV = test: cells; type: cell-based
# Summary of the method: as §1
# LOVO = test: cells; type: cell-based; conditions: LOVO; for CC50: read-out: LC50
# Summary of the method: as §1
# DU145 = test: cells; type: cell-based; conditions: for CC50: read-out: LC50
# Summary of the method: as §1
# MEL-28 = test: cells; type: cell-based; conditions: for CC50: read-out: LC50
# Summary of the method: as §1
# [1] = s9, 60 min, 1 μM
# [2] = tested on: L8, normal rat skeletal muscle cells; conditions: 24 h
# Protocol: In order to assess the cytotoxicity of the drugs to normal cells, we used 96 well plates plated at a density of 5000 cells per well (except for the FDC-P1 which were plated at 12,000 cells per well) with normal cell lines (ATCC, Table 1) maintained as per the directions of the ATCC: AML-12, normal mouse liver cells; NRK-52E, normal rat kidney cells; L8, normal rat skeletal muscle cells; FDC-P1, normal mouse myelogeous stem cells; and H9c2 (2-1), normal rat cardiac muscle cells. The cells in each plate were permitted to settle overnight before adding the test drug.
# To each well (100 μl medium) 10 μl of drug in media was added at varying concentrations (1×10-10-0.01 mg/ml final concentration) and further incubated overnight at 37° C. with 5% CO2. After 24 h the following assays were performed. All experiments were repeated at least 3 times and were assayed in duplicate.
# MTS assay (CellTiter 96 aqueous) was performed according to the manufacturer's (Promega) directions (for all cell types). Cell viability (mitochondrial activity) is determined via enzymatic conversion of the formazan substrate.
# H-MEC-1 = test: Inhibition of cells growth by colorimetric assay (SRB), H-MEC-1; type: cell-based; conditions: for CC50: read-out: LC50
# Summary of the method: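 SRB colorimetric growth assay: 5×10^3 cells/well, 18 h attachment, 48 h continuous compound exposure at 10–10^−8 μg/ml in DMSO/EtOH/PBS. TCA fixation, SRB stain, OD 490 nm; triplicate wells, GI, TGI and LC derived.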
# [3] = 60 min
# [4] = tested on: H9c2 (2-1), normal rat cardiac muscle cells; conditions: 24 h
# SK-OV3 = test: Inhibition of cells growth by colorimetric assay (SRB), SK-OV3; type: cell-based; conditions: for CC50: read-out: LC50
# Summary of the method: as §1
# [5] = tested on: FDC-P1, normal mouse myelogeous stem cells; conditions: 24 h
# [6] = tested on: AML-12, normal mouse liver cells; conditions: 24 h
# [7] = tested on: NRK-52E, normal rat kidney cells; conditions: 24 h
# CYP2D6 [8] = molecular target: T1, CYP2D6 (Homo sapiens, UniProt P10635); conditions: 450 min, 10 µM
# T1 sequence (P10635 whole entry): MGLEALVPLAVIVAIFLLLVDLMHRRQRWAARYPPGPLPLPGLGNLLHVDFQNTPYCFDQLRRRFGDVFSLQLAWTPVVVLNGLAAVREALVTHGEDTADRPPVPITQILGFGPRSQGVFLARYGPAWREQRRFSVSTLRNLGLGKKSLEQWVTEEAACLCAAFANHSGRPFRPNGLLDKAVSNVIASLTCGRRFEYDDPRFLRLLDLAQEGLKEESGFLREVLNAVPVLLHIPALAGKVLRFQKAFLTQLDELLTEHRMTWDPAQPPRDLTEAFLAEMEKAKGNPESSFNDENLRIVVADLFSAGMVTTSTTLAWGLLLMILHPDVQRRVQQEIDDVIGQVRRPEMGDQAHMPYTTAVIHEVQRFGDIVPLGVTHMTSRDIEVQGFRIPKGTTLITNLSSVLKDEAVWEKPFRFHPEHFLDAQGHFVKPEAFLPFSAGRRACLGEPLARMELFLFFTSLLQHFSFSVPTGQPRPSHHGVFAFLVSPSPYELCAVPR
# CYP3A4 = CYP3A4 (Homo sapiens, UniProt P08684); conditions: 30 min, 10 µM
# CYP3A4, sequence (P08684 whole entry): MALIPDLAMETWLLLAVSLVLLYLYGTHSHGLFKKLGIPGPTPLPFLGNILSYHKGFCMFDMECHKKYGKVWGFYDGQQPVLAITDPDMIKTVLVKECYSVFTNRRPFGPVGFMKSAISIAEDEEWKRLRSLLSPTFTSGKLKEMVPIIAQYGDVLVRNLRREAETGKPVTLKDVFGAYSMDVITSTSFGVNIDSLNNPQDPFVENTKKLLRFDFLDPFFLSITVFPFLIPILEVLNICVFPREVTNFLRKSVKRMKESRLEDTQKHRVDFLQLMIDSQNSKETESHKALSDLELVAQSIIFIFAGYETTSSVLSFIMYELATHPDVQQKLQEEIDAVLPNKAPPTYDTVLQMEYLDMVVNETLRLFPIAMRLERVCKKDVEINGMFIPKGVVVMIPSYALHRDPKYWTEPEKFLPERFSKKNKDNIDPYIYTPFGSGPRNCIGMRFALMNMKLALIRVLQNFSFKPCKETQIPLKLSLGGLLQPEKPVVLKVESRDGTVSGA
# Protocol: For CYP3A4 inhibition assay, the compound were tested at 10 μM in duplicate with a 0.25% final concentration of both methanol and acetonitrile in presence of the fluorescent substrate BFC (50 μM). The conversion of the BFC (7-benzyloxy-4-trifluoromethylcoumarin) in HFC (7-hydroxy-4-trifluoromethylcoumarin) was determined spectro-fluormetry after incubation with the enzyme during 30 min at 37° C.
# For both assays, the fluorescent intensity measured at t=0 is subtracted from that measured after the appropriate incubation time. The ratio of signal-to-noise is calculated by comparing the fluorescence in incubations containing the test compound to the control samples containing the same solvent vehicle. The percent of control activity is calculated and reported as percent inhibition.
# (HEPG2) = conditions: human, 24 h, 30 μM
# Protocol: The toxic potential of compounds was investigated in vitro using primary human hepatocytes (HEPG2). The compounds were tested at 30 μM in duplicate with a final DMSO concentration of 1%. After incubation during 24 h at 37° C. the cell viability was determined by the conversion of oxided alarmarBlue (resazurin) to reduced alarmarBlue (resorufin). Chlorpromazine was used as reference compound. Results are expressed as a percent of inhibition of control values.
# CYP2D6 [9] = molecular target: T1, CYP2D6; test: in vitro; conditions: CYP2D6 (% inhibition)
# B16 melanoma = conditions: mice, U.S. Pat. No. 5,149,804; cited from earlier work
# Lewis lung carcinoma = conditions: mice, U.S. Pat. No. 5,149,804; cited from earlier work
# P388 lymphoma = conditions: mice, U.S. Pat. No. 5,149,804; cited from earlier work
# [10] = H-MEC-1, 48 hours exposure, SRB
smiles,measurement,setting,value
COc1c(C)cc2c(c1O)[C@@H]1C3[C@@H]4SC[C@]5(NC(C)Cc6c5[nH]c5ccc(F)cc65)C(=O)COC[C@@H](c5c6c(c(C)c(OC(C)=O)c54)OCO6)N3[C@@H](O)[C@H](C2)N1C (stereo partly shown) [Compound 42],GI50,"IGROV-ET; 48 hours exposure, SRB",43.2 nM
same,TGI,"IGROV-ET; 48 hours exposure, SRB",9.42E−08 Molar
same,CC50,"IGROV-ET; 48 hours exposure, SRB",12.7 µM
same,GI50,"SK-BR3; SK-BR3, 48 hours exposure, SRB",6.63 nM
same,TGI,"SK-BR3; SK-BR3, 48 hours exposure, SRB",2.44E−08 Molar
same,CC50,"SK-BR3; SK-BR3, 48 hours exposure, SRB",87.3 nM
same,GI50,"HT29; HT29, 48 hours exposure, SRB",34.1 nM
same,TGI,"HT29; HT29, 48 hours exposure, SRB",1.42E−07 Molar
same,CC50,"HT29; HT29, 48 hours exposure, SRB",12.7 µM
same,GI50,"PANC-1; PANC-1, 48 hours exposure, SRB",16.9 nM
same,TGI,"PANC-1; PANC-1, 48 hours exposure, SRB",8.25E−08 Molar
same,CC50,"PANC-1; PANC-1, 48 hours exposure, SRB",12.7 µM
same,GI50,"K562; K562, 48 hours exposure, SRB",4.77 nM
same,TGI,"K562; K562, 48 hours exposure, SRB",9.15E−09 Molar
same,CC50,"K562; K562, 48 hours exposure, SRB",2810 nM
same,GI50,"LOVO-DOX; 48 hours exposure, SRB",45.9 nM
same,TGI,"LOVO-DOX; 48 hours exposure, SRB",2.05E−07 Molar
same,CC50,"LOVO-DOX; 48 hours exposure, SRB",12.7 µM
same,GI50,"LNCAP; 48 hours exposure, SRB",3.74 nM
same,TGI,"LNCAP; 48 hours exposure, SRB",6.61E−09 Molar
same,CC50,"LNCAP; 48 hours exposure, SRB",11.7 nM
same,TGI,"A549; A549, 48 hours exposure, SRB",4.09E−08 Molar
same,GI50,"A549; A549, 48 hours exposure, SRB",22 nM
same,CC50,"A549; A549, 48 hours exposure, SRB",75.9 nM
same,GI50,"IGROV; 48 hours exposure, SRB",2.44 nM
same,TGI,"IGROV; 48 hours exposure, SRB",5.12E−09 Molar
same,CC50,"IGROV; read-out: LC50, 48 hours exposure, SRB",10.7 nM
same,GI50,"LOVO; 48 hours exposure, SRB",13.5 nM
same,TGI,"LOVO; 48 hours exposure, SRB",4.37E−08 Molar
same,CC50,"LOVO; 48 hours exposure, SRB",127 nM
same,GI50,"DU145; DU145, 48 hours exposure, SRB",3.51 nM
same,TGI,"DU145; DU145, 48 hours exposure, SRB",7.97E−09 Molar
same,CC50,"DU145; DU145, 48 hours exposure, SRB",12.7 nM
same,GI50,"MEL-28; MEL-28, 48 hours exposure, SRB",0.404 nM
same,TGI,"MEL-28; MEL-28, 48 hours exposure, SRB",9.77E−10 Molar
same,CC50,"MEL-28; MEL-28, 48 hours exposure, SRB",6.19 nM
same,Solubility Dulbecco's PBS pH 7.4,,10.37 μM
same,Human Liver S9 Metabolic Stability (% remaining),[1],5 % remaining
same,Skeletal,[2],3.37E−08
same,GI50,H-MEC-1; [10],40.4 nM
same,TGI,H-MEC-1; [10],2.47E−07 Molar
same,CC50,H-MEC-1; [10],12.7 µM
same,log D n-Octanol-Dulbecco's PBS pH 7.4,[3],>4.8
same,Heart,[4],1.42E−07
same,GI50,"SK-OV3; SK-OV3, 48 hours exposure, SRB",7.37 nM
same,TGI,"SK-OV3; SK-OV3, 48 hours exposure, SRB",7.92E−07 Molar
same,CC50,"SK-OV3; SK-OV3, 48 hours exposure, SRB",12.7 µM
same,Myelo,[5],6.41E−08
same,Liver,[6],1.86E−07
same,Kidney,[7],1.12E−09
same,CYP2D6 (% inhibition),CYP2D6 [8],19 % inhibition
same,CYP3A4 (% inhibition),CYP3A4,78 % inhibition
same,Cell Viability (% inhibition),(HEPG2),67 % inhibition
COc1c(C)cc2c(c1O)[C@@H]1C3[C@@H]4SC[C@]5(NC(C)Cc6c5[nH]c5ccccc65)C(=O)COC[C@@H](c5c6c(c(C)c(OC(C)=O)c54)OCO6)N3[C@@H](O)[C@H](C2)N1C (stereo partly shown) [Compound 44],GI50,IGROV-ET,28.5 nM
same,TGI,IGROV-ET,7.06E−08
same,CC50,IGROV-ET,0.13 µM
same,GI50,SK-BR3; SK-BR3,12.7 nM
same,TGI,SK-BR3; SK-BR3,4.27E−08
same,CC50,SK-BR3; SK-BR3,177 nM
same,GI50,HT29; HT29,59.8 nM
same,TGI,HT29; HT29,4.59E−07
same,CC50,HT29; HT29,≥ 13 µM
same,GI50,PANC-1; PANC-1,56.7 nM
same,TGI,PANC-1; PANC-1,1.55E−07
same,CC50,PANC-1; PANC-1,≥ 13 µM
same,GI50,K562; K562,3.94 nM
same,TGI,K562; K562,9.38E−09
same,CC50,K562; K562,107 nM
same,GI50,LOVO-DOX,91 nM
same,TGI,LOVO-DOX,8.53E−07
same,CC50,LOVO-DOX,≥ 13 µM
same,GI50,LNCAP,4.3 nM
same,TGI,LNCAP,8.84E−09
same,CC50,LNCAP,31.1 nM
same,TGI,A549; A549,4.76E−08
same,GI50,A549; A549,27.4 nM
same,CC50,A549; A549,82.3 nM
same,GI50,IGROV,4.29 nM
same,TGI,IGROV,1.22E−08
same,CC50,IGROV; read-out: LC50,93 nM
same,GI50,LOVO,27.1 nM
same,TGI,LOVO,5.10E−08
same,CC50,LOVO,96.1 nM
same,GI50,DU145; DU145,6.54 nM
same,TGI,DU145; DU145,1.18E−08
same,CC50,DU145; DU145,≥ 13000 nM
same,GI50,MEL-28; MEL-28,2.63 nM
same,TGI,MEL-28; MEL-28,5.22E−09
same,CC50,MEL-28; MEL-28,10.3 nM
same,Solubility Dulbecco's PBS pH 7.4,,20.69 μM
same,Human Liver S9 Metabolic Stability (% remaining),[1],4 % remaining
same,Skeletal,[2],4.02E−08
same,GI50,H-MEC-1; H-MEC-1,75.3 nM
same,TGI,H-MEC-1; H-MEC-1,1.31E−06
same,CC50,H-MEC-1; H-MEC-1,≥ 13 µM
same,log D n-Octanol-Dulbecco's PBS pH 7.4,[3],>4.9
same,Heart,[4],5.20E−06
same,GI50,SK-OV3; SK-OV3,37.5 nM
same,TGI,SK-OV3; SK-OV3,1.31E−07
same,CC50,SK-OV3; SK-OV3,≥ 13 µM
same,Myelo,[5],1.21E−07
same,"inhibition at 450 min, 10 µM",CYP2D6 [9],16%
same,Liver,[6],4.33E−07
same,Kidney,[7],4.15E−07
same,CYP3A4 (% inhibition),CYP3A4,72 % inhibition
same,Cell Viability (% inhibition),(HEPG2),73 % inhibition
"COc1c(C)cc2c(c1O)[C@H]1N[C@@H](C2)[C@H](O)N2[C@H]1[C@@H]1SC[C@]3(NCCc4c3[nH]c3ccccc43)C(=O)OC[C@H]2c2c3c(c(C)c(OC(C)=O)c21)OCO3 [Ecteinascidin 722, ecteinascidin 722]",in vivo protection against B16 melanoma,B16 melanoma,protect mice in vivo at very low concentrations
same,in vivo protection against Lewis lung carcinoma,Lewis lung carcinoma,protect mice in vivo at very low concentrations
same,in vivo protection against P388 lymphoma,P388 lymphoma,protect mice in vivo at very low concentrations
"COc1c(C)cc2c(c1O)[C@@H]1C3[C@@H]4SC[C@]5(NCCc6c5[nH]c5ccccc65)C(=O)OC[C@@H](c5c6c(c(C)c(OC(C)=O)c54)OCO6)N3[C@@H](O)[C@H](C2)N1C (stereo partly shown) [Ecteinascidin 736, ecteinascidin 736]",in vivo protection against B16 melanoma,B16 melanoma,protect mice in vivo at very low concentrations
same,in vivo protection against Lewis lung carcinoma,Lewis lung carcinoma,protect mice in vivo at very low concentrations
same,in vivo protection against P388 lymphoma,P388 lymphoma,protect mice in vivo at very low concentrations
